Consider three molecules from patent publication US20090264469A1, “NOVEL DICARBOXYLIC ACID DERIVATIVES” (BIO-PROJET, priority 2004, published 2009).

The structures appear in SMILES notation.

In one series the target is T1, Human S1P3 receptor (Homo sapiens, UniProt Q99500).
T1 construct: expressed in transfected cells; host or cells: HEK 293 or CHOK1 cells (membranes)
The series is described as follows: GTP-γ-35S binding, agonist activity on S1P3 receptor. In kind it is biochemical. The conditions noted are these: for EC50: membranes of transfected HEK 293 or CHOK1 cells, [35S]GTP-γ-S binding; for intrinsic activity (i.a.) S1P3: relative to the maximal stimulation elicited by S1P. The text has this: (§1) Human S1P1-5 receptor subtypes were stably expressed in HEK 293 or CHOK1 cells following transfection with corresponding plasmid constructs. Although the native cells somewhat respond to S1P, the level of expression and responsiveness of the antibiotic-resistant transfected cell lines that were selected is much higher.
(§2) When cultivated cells reached 80% confluence, they were collected and, after lysis, cell membranes were collected by centrifugation and washed in buffer containing antiproteases.
(§3) GTP-γ-35 S binding was performed using ˜5 μg protein of cell membranes suspended in 50 mM tris-HCl pH 7.5 containing 10 mM Mg Cl2, 100 mM NaCl and 10 μM GDP. The radioligand was 0.025 nM [35S] GTP-γ-S and non specific binding determined in the presence of 10 μM non-radioactive GTP-γ-S. S1P and receptor agonists enhance the specific binding whereas inverse agonists reduce it. The maximal stimulation elicited by S1P was taken as a reference to define full or partial agonism and calculate the intrinsic activity (i.a.) of compounds.
(In general: GTPγS is a poorly hydrolysed GTP analogue; its binding reports G protein activation.)

In another series the target is T2, Human S1P2 receptor (Homo sapiens, UniProt O95136).
T2 construct: expressed in transfected cells; host or cells: HEK 293 or CHOK1 cells (membranes)
T2 sequence (O95136 whole entry): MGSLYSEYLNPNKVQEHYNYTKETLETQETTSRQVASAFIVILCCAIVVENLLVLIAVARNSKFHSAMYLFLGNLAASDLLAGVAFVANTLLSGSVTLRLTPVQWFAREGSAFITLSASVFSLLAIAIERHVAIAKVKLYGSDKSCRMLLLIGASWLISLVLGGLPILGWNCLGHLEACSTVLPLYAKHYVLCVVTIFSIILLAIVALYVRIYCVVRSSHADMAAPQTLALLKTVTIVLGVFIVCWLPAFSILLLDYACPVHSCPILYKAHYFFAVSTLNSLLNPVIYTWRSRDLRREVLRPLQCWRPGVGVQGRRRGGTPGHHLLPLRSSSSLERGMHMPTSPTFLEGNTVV
The series is described as follows: GTP-γ-35S binding, agonist activity on S1P2 receptor. The class given is biochemical. The conditions noted are these: for EC50: membranes of transfected HEK 293 or CHOK1 cells, [35S]GTP-γ-S binding; for intrinsic activity (i.a.) S1P2: relative to the maximal stimulation elicited by S1P.
From the text: as §1, §2, §3

In the next series the target is T3, Human S1P1 receptor (Homo sapiens, UniProt P21453).
T3 construct: expressed in transfected cells; host or cells: HEK 293 or CHOK1 cells (membranes)
T3 sequence (P21453 whole entry): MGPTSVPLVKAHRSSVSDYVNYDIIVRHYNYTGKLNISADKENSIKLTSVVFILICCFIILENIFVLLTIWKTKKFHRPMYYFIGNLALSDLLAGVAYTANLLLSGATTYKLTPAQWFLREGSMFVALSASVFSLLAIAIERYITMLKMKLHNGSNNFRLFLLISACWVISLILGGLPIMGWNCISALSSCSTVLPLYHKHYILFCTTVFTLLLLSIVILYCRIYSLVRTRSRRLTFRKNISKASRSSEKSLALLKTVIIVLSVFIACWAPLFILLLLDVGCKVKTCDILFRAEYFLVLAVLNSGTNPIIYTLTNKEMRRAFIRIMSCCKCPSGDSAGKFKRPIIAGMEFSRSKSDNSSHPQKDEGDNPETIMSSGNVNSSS
The series is described as follows: GTP-γ-35S binding, agonist activity on S1P1 receptor. In kind it is biochemical. The conditions noted are these: for EC50: membranes of transfected HEK 293 or CHOK1 cells, [35S]GTP-γ-S binding; for intrinsic activity (i.a.) S1P1: relative to the maximal stimulation elicited by S1P.
From the text: as §1, §2, §3

Another series relates to circulating lymphocytes. The conditions noted are these: in vivo; cited from earlier work.
The conditions of series [1]: J. Am. Soc. Nephrol., 13, 1073, 2002; cited from earlier work.

T1 sequence (Q99500 whole entry): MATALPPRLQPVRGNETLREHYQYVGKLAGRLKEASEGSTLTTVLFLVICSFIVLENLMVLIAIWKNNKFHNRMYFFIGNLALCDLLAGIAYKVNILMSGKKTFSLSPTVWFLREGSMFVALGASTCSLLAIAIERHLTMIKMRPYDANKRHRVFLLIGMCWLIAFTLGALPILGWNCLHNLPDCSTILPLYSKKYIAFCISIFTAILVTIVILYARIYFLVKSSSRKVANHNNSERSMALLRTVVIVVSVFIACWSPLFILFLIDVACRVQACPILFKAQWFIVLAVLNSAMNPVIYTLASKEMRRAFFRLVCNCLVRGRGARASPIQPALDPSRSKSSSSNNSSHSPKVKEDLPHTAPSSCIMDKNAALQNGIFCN

A word on the EC50: it is the concentration giving half of the maximal effect. Lower therefore signals an effect from little substance. `CCCCCCCCCc1ccc(CNC2CCC(C(=O)O)(C(=O)O)C2)cc1` (centres unmarked) [Example 3, 3-(4-nonylbenzylamino)cyclopentane-1,1-dicarboxylic acid]: at Human S1P3 receptor, the half-maximal effective concentration (EC50) is greater than 1000 nM and the “intrinsic activity (i.a.) S1P3” value is given as roughly 0.3. For the same molecule, at Human S1P2 receptor, the EC50 was 4 nM and the “intrinsic activity (i.a.) S1P2” value was 1. For the same molecule, on Human S1P1 receptor, the EC50 was 6 nM and the “intrinsic activity (i.a.) S1P1” value is given as 1.

Consider `CCCCCCCCc1ccc(CCC(N)(CO)CO)cc1` [FTY 720], for which the circulating lymphocytes result in the series on circulating lymphocytes is “decrease”. The adverse event result in series [1] was “transient asymptomatic bradycardia”.

As for `CCCCCCCCCCc1ccc(CNC2CCC(C(=O)O)(C(=O)O)C2)cc1` (centres unmarked) [Example 12, 3-(4-decylbenzylamino)cyclopentane-1,1-dicarboxylic acid], on Human S1P3 receptor, the EC50 was greater than 1000 nM and the “intrinsic activity (i.a.) S1P3” value is on record as roughly 0.3. Moreover, on Human S1P2 receptor, the response was half-maximal at 5 nM (EC50) and the “intrinsic activity (i.a.) S1P2” value came out at 1. At Human S1P1 receptor, the midpoint of the response, the EC50, lay at 13 nM and the “intrinsic activity (i.a.) S1P1” value is given as 1.
